We go through six compounds from US20250368640A1 (BIOFRONT LTD, priority 2022, published 2025).

For test [1], the system named is FLT3. Kind of test: FLT3 degradation assay (western blot, MV-411 cells). It is filed as cell-based, human. The procedure: (§1) MV-411 cells were cultured with medium (IMDM) prior to use. Cells were then incubated with a variety of concentrations of compound. After incubation, the cells were collected and lysed. The protein concentration was determined by BCA protein assay kit from Thermo (23227). The FLT3 protein level was determined by western blots, using anti-human FLT3 monoclonal antibody from CST (3462S). Proteins were loaded into each well of the pre-casting gels and subjected to electrophoretic separation by SDS-PAGE. The protein resolved by SDS-PAGE were transferred to PVDF, blocked by 5% skim milk, and probed with anti-human FLT3 antibody or -actin antibody from CST (3700S), using standard western blotting procedure.
For orientation: Immunoblotting shows a protein as a band on a membrane.

For test [2], the target named is FLT3-ITD (Homo sapiens, UniProt P36888, ITD). Kind of test: FLT3-ITD enzyme inhibition assay. It is filed as biochemical. The protocol:
FLT3-ITD Enzyme Inhibition Assay
The compound was dissolved in 100% DMSO at the concentration of 10 mM. The FLT3-ITD protein was purchased from Invitrogen (PV6191). 10 μL per well of 2.5×FLT3-ITD protein was added to assay plate containing the test compound, centrifuged at 1000 rpm for 1 minute, and then incubated at 25° C. for 10 minutes. Peptide 2 was purchased from GL Biochem (112394) and ATP was purchased from Promega (V9102). The two were added 15 μL per well mixture of 1.67× peptide 2 (final conc. is 3 μM) and ATP (final conc. is 97.2 μM), centrifuged at 1000 rpm for 1 minute, then incubated at 25° C. for 40 minutes. Then added 30 μL of stop buffer (100 mM HEPES pH7.5, 0.015% Brij-35, 0.2% Coating Reagent 3, 50 mM EDTA) to the assay plate and centrifuged at 1000 rpm for 1 minute. the product was determined. Based on the results, the IC50 value of the compound was calculated.

Test [3] addresses T1, Aurora A (Homo sapiens (Human), UniProt O14965). Kind of test: Aurora A enzyme inhibition assay. It is filed as biochemical. The procedure:
Aurora A Enzyme Inhibition Assay
The compound was dissolved in 100% DMSO at the concentration of 10 mM. The Aurora A protein was purchased from Carna (05-101). 10 μL per well of 2.5×Aurora A protein was added to assay plate containing the test compound, centrifuged at 1000 rpm for 1 minute, and then incubated at 25° C. for 10 minutes. Peptide 21 was purchased from GL Biochem (116370) and ATP was purchased from Promega (V9102). The two were added 15 μL per well mixture of 1.67× peptide 21 (final conc. is 3 μM) and ATP (final conc. is 14.58 μM), centrifuged at 1000 rpm for 1 minute, then incubated at 25° C. for 40 minutes. Then added 30 μL of stop buffer (100 mM HEPES pH7.5, 0.015% Brij-35, 0.2% Coating Reagent 3, 50 mM EDTA) to the assay plate and centrifuged at 1000 rpm for 1 minute. the product was determined. Based on the results, the IC50 value of the compound was calculated.

Test [4] deals with T2, HPK1 (Homo sapiens (Human), UniProt Q92918). Kind of test: HPK1 degradation assay (western blot, human PBMC). In kind it is cell-based. Particulars: for Dmax: read-out: HPK1 Dmax. The protocol:
Frozen human PBMC were purchased from Shanghai OribioTech and recovered with culture medium (RMPI1640) prior to use. The cells were then incubated with a variety of concentrations of compound. After incubation, the cells were collected and lysed. The protein concentration was determined by BCA protein assay kit from Thermo (23227). The HPK1 protein level was determined by western blots, using anti-human HPK1 polyclonal antibody from CST (4472S). Proteins were loaded into each well of the pre-casting gels and subjected to electrophoretic separation by SDS-PAGE. The protein resolved by SDS-PAGE were transferred to PVDF, blocked by 5% skim milk, and probed with anti-human HPK1 antibody or β-actin antibody from CST (3700S), using standard western blotting procedure.
Target sequence in this assay (Q92918 whole entry): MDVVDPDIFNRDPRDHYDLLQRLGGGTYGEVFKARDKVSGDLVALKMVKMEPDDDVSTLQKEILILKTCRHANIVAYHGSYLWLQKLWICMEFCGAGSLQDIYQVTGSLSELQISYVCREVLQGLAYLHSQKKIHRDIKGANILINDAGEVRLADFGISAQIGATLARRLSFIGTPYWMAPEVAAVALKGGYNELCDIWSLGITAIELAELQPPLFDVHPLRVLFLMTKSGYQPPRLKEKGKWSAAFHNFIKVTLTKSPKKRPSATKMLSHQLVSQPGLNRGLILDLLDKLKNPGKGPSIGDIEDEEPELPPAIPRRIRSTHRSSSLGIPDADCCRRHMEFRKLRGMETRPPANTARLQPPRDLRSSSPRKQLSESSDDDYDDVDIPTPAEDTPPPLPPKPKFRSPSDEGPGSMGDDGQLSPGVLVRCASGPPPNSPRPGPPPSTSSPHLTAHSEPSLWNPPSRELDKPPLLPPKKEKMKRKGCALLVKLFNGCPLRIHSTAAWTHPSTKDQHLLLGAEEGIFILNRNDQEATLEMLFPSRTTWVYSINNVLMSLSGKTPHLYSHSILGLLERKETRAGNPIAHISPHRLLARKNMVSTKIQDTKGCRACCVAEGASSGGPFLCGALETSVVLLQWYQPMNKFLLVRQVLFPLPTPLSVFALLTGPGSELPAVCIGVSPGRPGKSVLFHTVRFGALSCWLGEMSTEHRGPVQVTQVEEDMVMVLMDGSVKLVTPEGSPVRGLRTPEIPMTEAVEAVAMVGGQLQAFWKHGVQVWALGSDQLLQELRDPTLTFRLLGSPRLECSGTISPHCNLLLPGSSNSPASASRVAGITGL

For test [5], the target named is T1, Aurora A. Kind of test: Aurora A degradation assay (western blot). It is filed as cell-based. The following applies: for Dmax: read-out: Aurora A Dmax. The protocol:
Aurora A Degradation Assay
as §1, with “IMR32” for “MV-411”, “cultured with medium (MEM), Huh7 cells were cultured with medium (DMEM) and HL-60 cells were culture” for “cultured”, “AURKA” for “FLT3”, “(14475S).” for “(3462S).”, “β-actin” for “-actin”, “(3700S) or COX IV antibody from CST (4850S),” for “(3700S),”

Test [6] has as its system MEK 1/2. Kind of test: MEK 1/2 degradation assay (western blot). It is filed as cell-based, human. The protocol: MEK 1/2 Degradation Assay
as §1, with “(IMDM) and IMR32 cells were cultured with medium (MEM)” for “(IMDM)”, “anti-human MEK 1/2 polyclonal” for “anti-human FLT3 monoclonal”, “CST (9122S).” for “CST (3462S).”, “anti-human MEK1/2” for “anti-human FLT3”, “or β-actin” for “or -actin”, “CST (3700S) and COX IV antibody from CST (4850S),” for “CST (3700S),”

In test [7] the target is T2, HPK1. Kind of test: HPK1 enzyme inhibition assay (ADP-Glo). It is filed as biochemical. The protocol:
HPK1 Enzyme Inhibition Assay
The compound was dissolved in 100% DMSO at the concentration of 10 mM. The HPK1 protein was purchased from Signal Chem (M23-11G-10). 2.5 μL per well of 2×HPK1 protein was added to assay plate containing the test compound, centrifuged at 1500 rpm for 1 minute, and then incubated at 25° C. for 60 minutes. MBP protein was purchased from Signal Chem (M42-51N) and ATP was purchased from Promega (V9102). The two were added 2.5 μL per well mixture of 2×MBP (0.2 ug/ul) and ATP (20 μM), centrifuged at 1500 rpm for 1 minute, then incubated at 25° C. for 60 minutes. Then added 5 μL of ADP-Glo from Promega (V9102) to the assay plate and depleted the unconsumed ATP for 60 minutes. Then centrifuged at 1500 rpm for 1 minute and incubated at 25° C. for 60 minutes. Finally, 10 μL of the kinase assay reagent from Promega (V9102) was added to the assay plate to convert ADP to ATP, centrifuged at 1500 rpm for 1 minute, incubate at 25° C. for 40 minutes. After 40 minutes incubation, the […] was determined. Based on the results, the IC50 value of the compound was calculated.
Target sequence in this assay (Q92918 1-346 limits assumed): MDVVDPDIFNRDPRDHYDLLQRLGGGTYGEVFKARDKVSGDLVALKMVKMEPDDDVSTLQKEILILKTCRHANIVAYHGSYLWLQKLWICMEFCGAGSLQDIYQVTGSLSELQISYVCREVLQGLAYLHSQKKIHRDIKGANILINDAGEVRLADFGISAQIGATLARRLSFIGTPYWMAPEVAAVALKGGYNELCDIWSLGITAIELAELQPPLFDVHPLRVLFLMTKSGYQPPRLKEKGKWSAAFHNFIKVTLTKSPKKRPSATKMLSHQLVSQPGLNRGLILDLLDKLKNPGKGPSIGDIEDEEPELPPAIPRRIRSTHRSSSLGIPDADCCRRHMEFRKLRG

The mark [8] stands for this setting: read-out: FLT3 DC50, protein degradation.
The mark [9] stands for this setting: protein degradation, human PBMC, read-out: HPK1 DC50.
Setting [10] is: protein degradation, IMR32, Huh7 or HL-60 cells, read-out: Aurora A DC50.
[11] abbreviates: protein degradation, MV-411 or IMR32 cells.
Setting [12] is: read-out: MEK 1/2 DC50; protein degradation, MV-411 or IMR32 cells.
[13] abbreviates: protein degradation, class symbol, read-out: FLT3 DC50 (nM)/Dmax (%).
Where [14] appears, read: enzyme inhibition, read-out: FLT3-ITD IC50.
Setting [15] is: protein degradation, human PBMC.
[16] abbreviates: protein degradation, IMR32, Huh7 or HL-60 cells.
[17] abbreviates: protein degradation, MV-411 or IMR32 cells; read-out: MEK 1/2 DC50.

Like-named read-outs stand apart in the source and are kept apart here.

T1 sequence (O14965 whole entry): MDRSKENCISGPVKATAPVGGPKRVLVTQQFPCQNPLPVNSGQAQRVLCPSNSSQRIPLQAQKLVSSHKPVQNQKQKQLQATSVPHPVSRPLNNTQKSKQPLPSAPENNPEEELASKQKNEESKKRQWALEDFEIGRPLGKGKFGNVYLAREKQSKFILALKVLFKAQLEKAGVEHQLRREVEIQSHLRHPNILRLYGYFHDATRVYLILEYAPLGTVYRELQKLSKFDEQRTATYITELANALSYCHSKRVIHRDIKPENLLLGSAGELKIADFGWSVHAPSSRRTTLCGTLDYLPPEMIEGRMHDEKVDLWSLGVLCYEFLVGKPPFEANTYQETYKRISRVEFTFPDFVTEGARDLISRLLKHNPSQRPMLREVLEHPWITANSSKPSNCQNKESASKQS
FLT3-ITD, sequence (P36888 whole entry, looked up, change not shown): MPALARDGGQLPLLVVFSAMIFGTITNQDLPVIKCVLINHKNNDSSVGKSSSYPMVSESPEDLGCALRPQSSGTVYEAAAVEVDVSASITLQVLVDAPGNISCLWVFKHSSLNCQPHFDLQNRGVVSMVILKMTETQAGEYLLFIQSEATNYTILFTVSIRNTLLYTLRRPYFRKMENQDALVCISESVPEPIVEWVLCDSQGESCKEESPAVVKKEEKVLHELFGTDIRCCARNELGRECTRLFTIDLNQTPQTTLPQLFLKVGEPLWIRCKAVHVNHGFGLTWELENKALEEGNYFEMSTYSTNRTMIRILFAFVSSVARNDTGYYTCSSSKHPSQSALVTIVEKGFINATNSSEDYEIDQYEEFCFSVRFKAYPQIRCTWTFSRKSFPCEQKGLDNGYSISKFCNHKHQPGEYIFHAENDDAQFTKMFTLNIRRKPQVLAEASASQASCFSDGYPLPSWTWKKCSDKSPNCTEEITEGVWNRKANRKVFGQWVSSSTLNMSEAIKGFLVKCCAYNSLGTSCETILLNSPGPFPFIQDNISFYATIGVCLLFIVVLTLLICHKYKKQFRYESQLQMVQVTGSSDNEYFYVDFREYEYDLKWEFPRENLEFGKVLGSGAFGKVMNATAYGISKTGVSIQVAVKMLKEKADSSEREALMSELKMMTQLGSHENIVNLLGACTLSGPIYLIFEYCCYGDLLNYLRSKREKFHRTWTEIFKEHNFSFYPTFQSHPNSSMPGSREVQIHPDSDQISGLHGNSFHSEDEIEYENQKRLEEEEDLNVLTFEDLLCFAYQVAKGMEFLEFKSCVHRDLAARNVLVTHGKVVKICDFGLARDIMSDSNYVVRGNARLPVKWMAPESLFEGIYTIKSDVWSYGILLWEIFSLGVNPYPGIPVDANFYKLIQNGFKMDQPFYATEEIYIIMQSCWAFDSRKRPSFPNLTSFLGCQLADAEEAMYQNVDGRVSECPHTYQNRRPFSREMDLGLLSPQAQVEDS

The term IC50 denotes the point on the concentration scale where inhibition reaches its midpoint. The term Dmax denotes the greatest extent of degradation seen. On to `CCc1c[nH]c2ncc(-c3cccc(N4CCCN(CC5CCN(c6ccc(NC7CCC(=O)NC7=O)cc6F)CC5)C4=O)c3)c(Cl)c12` (centres unmarked) [Example 15, 3-((4-(4-((3-(3-(4-chloro-3-ethyl-1H-pyrrolo [2,3-b]pyridin-5-yl)phenyl)-2-oxotetrahydropyrimidin-1 (2H)-yl)methyl)piperidin-1-yl)-3-fluorophenyl)amino) piperidine-2,6-dione], for which, in test [1] (protein degradation), the “FLT3 Dmax” value was 34%. Also, the DC50 in test [1] (setting [8]) turned out to be 0.02 nM; in test [4] (setting [9]), 6 nM; in test [5] (setting [10]), 9.6 nM; in test [6] (setting [12]), 1 nM. For the same compound, the IC50 in test [2] was 8.8 nM; in test [3], 19.9 nM; in test [7], 4.6 nM. In addition, the Dmax was found to be 80% in test [4] and 82% in test [5]. In addition, the “MEK 1/2 Dmax” value in test [6] (setting [11]) is 38%.

Consider `O=C1CCC(N2Cc3ccc(N4CCC(CN5CCCN(c6cccc(-c7cnc8[nH]cc(CC(F)F)c8c7Cl)c6)C5=O)CC4)cc3C2=O)C(=O)N1` (centres unmarked) [Example 13], for which the DC50 in test [1] (setting [13]) was above 10000 nM; in test [4] (setting [9]), 11 nM; in test [5] (setting [10]), 3 nM; in test [6] (setting [17]), below 1 nM. Besides, the results for the IC50 in test [2] (setting [14]), in test [3] and in test [7] were 23.8 nM, 14.3 nM and 12.5 nM, respectively. For the same compound, the Dmax in test [4] (setting [15]) came out at 50%; in test [5] (setting [16]), 70%. Also, in test [6] (setting [11]), the “MEK 1/2 Dmax” value is recorded as 30%.

For `CCc1c[nH]c2ncc(-c3cccc(N4CCCN(CCC5CCN(c6ccc(NC7CCC(=O)NC7=O)cc6F)CC5)C4=O)c3)c(Cl)c12` (centres unmarked) [Example 16, 3-((4-(4-(2-(3-(3-(4-chloro-3-ethyl-1H-pyrrolo [2,3-b]pyridin-5-yl)phenyl)-2-oxotetrahydropyrimidin-1 (2H)-yl)ethyl)piperidin-1-yl)-3-fluorophenyl)amino) piperidine-2,6-dione], in test [1] (protein degradation), the “FLT3 Dmax” value turned out to be 17%. Moreover, the DC50 in test [1] (setting [8]) amounted to 115 nM; in test [4] (setting [9]), 100 nM; in test [5] (setting [10]) it was 4.6 nM; in test [6] (setting [12]), 4.6 nM. The IC50 in test [2] came to 12.3 nM; in test [3], 40.8 nM; in test [7] it was 5.5 nM. The Dmax is 64% in test [4] and 75% in test [5]. Also, in test [6] (setting [11]), the “MEK 1/2 Dmax” value was 75%.

For `CCc1c[nH]c2ncc(-c3cccc(N4CCCN(CC5CCN(c6ccc7c(c6)C(=O)N(C6CCC(=O)NC6=O)C7=O)CC5)C4=O)c3)c(Cl)c12` (centres unmarked) [Example 8, 5-(4-((3-(3-(4-chloro-3-ethyl-1H-pyrrolo [2,3-b]pyridin-5-yl)phenyl)-2-oxotetrahydropyrimidin-1 (2H)-yl)methyl)piperidin-1-yl)-2-(2,6-dioxopiperidin-3-yl) isoindoline-1,3-dione], the “FLT3 Dmax” value in test [1] (protein degradation) is recorded as 95%. Besides, the DC50 in test [1] (setting [8]) is 8 nM; in test [4] (setting [9]), 85 nM; in test [5] (setting [10]), below 20 nM; in test [6] (setting [12]) it was 82 nM. The IC50 in test [2] worked out at 5.7 nM; in test [3], 110 nM; in test [7] it was 15.7 nM. Also, the Dmax in test [4] and in test [5] was 95% throughout. Also, in test [6] (setting [11]), the “MEK 1/2 Dmax” value came out at 91%.

`CCc1c[nH]c2ncc(-c3cccc(N4CCCN(CCN5CCN(c6ccc7c(N8CCC(=O)NC8=O)cccc7c6)CC5)C4=O)c3)c(Cl)c12` [Example 4, 1-(6-(4-(2-(3-(3-(4-chloro-3-ethyl-1H-pyrrolo [2,3-b]pyridin-5-yl)phenyl)-2-oxotetrahydropyrimidin-1 (2H)-yl)ethyl)piperazin-1-yl)naphthalen-1-yl) dihydropyrimidine-2, 4 (1H, 3H)-dione]: the DC50 was above 10000 nM in test [1] (setting [13]); above 10000 nM in test [4] (protein degradation, human PBMC, class symbol, read-out: HPK1 DC50 (nM)/Dmax (%)); above 10000 nM in test [5] (protein degradation, IMR32, Huh7 or HL-60 cells, class symbol, read-out: Aurora A DC50 (nM)/Dmax (%)); below 1 nM in test [6] (setting [17]). Moreover, the IC50 in test [2] (setting [14]) worked out at 24 nM; in test [3], 25.2 nM; in test [7], 17.1 nM. For the same compound, the “MEK 1/2 Dmax” value in test [6] (setting [11]) is given as 30%.

On to `CCc1c[nH]c2ncc(-c3cccc(N4CCCN(CCN5CCN(c6ccc(C7CCC(=O)NC7=O)cc6)CC5)C4=O)c3)c(Cl)c12` (centres unmarked) [Example 17], for which the “FLT3 Dmax” value in test [1] (protein degradation) was 80%. In addition, the DC50 in test [1] (protein degradation, read-out: FLT3 DC50) was determined as 8.7 nM; in test [4] (setting [9]), 2.3 nM; in test [5] (setting [10]), 1 nM; in test [6] (setting [17]), 1 nM. The IC50 in test [2] (setting [14]) amounted to 17.4 nM; in test [3], 16.6 nM; in test [7], 2.9 nM. The Dmax in test [4] (setting [15]) came to 91%; in test [5] (setting [16]), 50%. Also, in test [6] (setting [11]), the “MEK 1/2 Dmax” value came out at 47%.
